Assay results reported in patent US20020061325A1, “Container for 4-allylanisole and analog scolytid pesticides” (priority 1993, published 2002).
One block for each molecule: values may come before it.

Assays:
southern pine beetle [1] = test: Laboratory assay for effectiveness of repellent (circle of compound on cardboard, beetle response); format: in vivo; parameters: BEHAVIORAL RATING: scale not given here; details: for BEHAVIORAL RATING: numerical score for degree of behavioral response; for repelled behavioral response (in words): laboratory tests
Procedure: A) Laboratory Assay for Effectiveness of Repellent
The candidate compound was applied as a circle (17 cm in diameter by 5 mm in width) to a 28 by 21.5 cm piece of uncoated cardboard using a camel-hair brush. Three minutes after application, a beetle was placed in the center of the circle. In each trial, at least 20 healthy-appearing beetles were tested. Testing was conducted at room temperature (22°-25° C.) with light supplied from an adjoining room. The beetles were briefly refrigerated prior to testing to reduce their tendency to fly immediately upon release. An object was used to cast a shadow over the test circle in order to minimize response to light, which could interfere with the interpretation of insect response to an applied substance.

southern pine beetle [2] = test: Field assay with frontalure-baited Lindgren funnel traps; format: in vivo; details: for rank (relative repellency, 1 = best repellent): frontalure plus test compound; for mean rank: mean over the trials in which the compound was tested; for rank in reduction of trap captures: the two field trials in which they were tested, relative to 4-allylanisole
Procedure: B) Field Assays of the Effectiveness of Repellents
Field assays were carried out with selected 4-allylanisole analogs, including 4-allylanisole, anisole, 4-isopropylanisole, allylbenzene, 4-methylstyrene, toluene, and trans-anethole. The protocol for these assays is similar to that previously described (Hayes, et al., 1994a; Hayes and Strom, 1994c, both incorporated by reference as if fully set forth herein). Populations of local southern pine beetle were tested for response to these compounds using baited Lindgren funnel (16-funnel) traps. Traps were placed in or near active infestations of southern pine beetle over the course of the summer of 1997. Treatment baits consisted of the attractant frontalure and frontalure plus the test compound released from a 4-ml Samco pipette bulb. Hayes, et al., (J. Vozzo [ed.] Research and applications of chemical sciences in forestry: Proceeding of the 4th Southern Station Chemical Sciences Meeting, GTR-SO-104:69-80, 1994). Frontalure is a combination of frontalin, which is an aggregation pheromone of the southern pine beetle, and a-pinene, a synergistic host oleoresin compound. In most cases, each trap array consisted of a total of six traps: one frontalure-only treatment; one frontalure plus 4-allylanisole treatment, and four traps containing treatments of frontalure plus a 4-allylanisole analog. In one instance a 12-trap array was employed, the array having two traps per treatment.
(§1) Release rates were determined in preliminary studies using simple gravimetric measurement of bulbs to provide elution in mg/day units. Release rates of all analog compounds were equal to or greater than that of 4-allylanisole. Placement of treatments was originally assigned at random and rotated sequentially with each collection. Each array was collected through two full rotations. Whole traps were moved in order to eliminate the possibility of contamination. Collection cups contained a 5.5×2 cm piece of pest strip, containing as its active ingredient the insecticidal agent 2,2 dichlorovinyldimethylphosphate to kill the captured insects. The numbers of captured southern pine beetle and of predatory clerid beetle Thanasimus dubius, the most important natural enemy of the southern pine beetle, were determined. Data were analyzed using ANOVA (SAS PROC GLM) to determine if the mean numbers of southern pine beetles or clerids were affected by treatment. The positions of the traps were also taken into consideration in the model.

[3] = Release rate by gravimetric measurement of pipette bulbs; format: physicochemical; details: elution from 4-ml Samco pipette bulb, preliminary studies
Procedure: as §1

[4] = 30-second exposure, 3 min after application, at least 20 beetles per trial, 22-25 C
[5] = compounds marked * : originally tested with sample size of 45-53 beetles, published in Hayes et al. 1994

Compound: COc1ccc(C=O)cc1 [p-anisaldehyde]
% REPELLED (southern pine beetle [1]; [4]): 65%
BEHAVIORAL RATING (southern pine beetle [1]; 30-second exposure): 3

Compound: C=Cc1ccc(OC)cc1 [4-vinylanisole]
% REPELLED (southern pine beetle [1]; [4]): 24%
BEHAVIORAL RATING (southern pine beetle [1]; 30-second exposure): 2

Compound: COCC(=O)c1ccccc1 [2-methoxyacetophenone]
% REPELLED (southern pine beetle [1]; [4]): 8%
BEHAVIORAL RATING (southern pine beetle [1]; 30-second exposure): 2

release rate [3]: 52.2 mg/day
Compound: COc1ccccc1 [anisole]
% REPELLED (southern pine beetle [1]; [5]): >80%
rank (relative repellency, 1 = best repellent) (southern pine beetle [2]; TRIAL 1): 3
rank (relative repellency, 1 = best repellent) (southern pine beetle [2]; TRIAL 2): 4
rank (relative repellency, 1 = best repellent) (southern pine beetle [2]; TRIAL 3): 4
rank (relative repellency, 1 = best repellent) (southern pine beetle [2]; TRIAL 4): 2
rank (relative repellency, 1 = best repellent) (southern pine beetle [2]; TRIAL 5): 5
rank (relative repellency, 1 = best repellent) (southern pine beetle [2]; TRIAL 6): 3
mean rank (southern pine beetle [2]): 3.5

release rate [3]: 16.45 mg/day
Compound: COc1ccc(C(C)C)cc1 [4-isopropylanisole]
% REPELLED (southern pine beetle [1]; [5]): >90%
rank (relative repellency, 1 = best repellent) (southern pine beetle [2]; TRIAL 1): 4
rank (relative repellency, 1 = best repellent) (southern pine beetle [2]; TRIAL 2): 2
rank (relative repellency, 1 = best repellent) (southern pine beetle [2]; TRIAL 3): 2
rank (relative repellency, 1 = best repellent) (southern pine beetle [2]; TRIAL 4): 5
rank (relative repellency, 1 = best repellent) (southern pine beetle [2]; TRIAL 5): 3
rank (relative repellency, 1 = best repellent) (southern pine beetle [2]; TRIAL 6): 2
mean rank (southern pine beetle [2]): 3.5

Compound: CC(C)c1ccccc1 [cumene]
% REPELLED (southern pine beetle [1]; [4]): 55%
BEHAVIORAL RATING (southern pine beetle [1]; 30-second exposure): 3

Compound: COc1cccc(CO)c1 [3-methoxybenzyl alcohol]
% REPELLED (southern pine beetle [1]; [4]): 0%
BEHAVIORAL RATING (southern pine beetle [1]; 30-second exposure): 1

release rate [3]: 674.75 mg/day
Compound: C=Cc1ccc(C)cc1 [4-methylstyrene]
repelled behavioral response (in words) (southern pine beetle [1]): modest repellent response
BEHAVIORAL RATING (southern pine beetle [1]; 30-second exposure): 2
rank (relative repellency, 1 = best repellent) (southern pine beetle [2]; TRIAL 3): 2
rank (relative repellency, 1 = best repellent) (southern pine beetle [2]; TRIAL 4): 3
mean rank (southern pine beetle [2]): 2.5
rank in reduction of trap captures (southern pine beetle [2]): second and third

Compound: Cc1ccccc1 [toluene]
repelled behavioral response (in words) (southern pine beetle [1]): modest repellent response
BEHAVIORAL RATING (southern pine beetle [1]; 30-second exposure): 2
rank (relative repellency, 1 = best repellent) (southern pine beetle [2]; TRIAL 1): 2
rank (relative repellency, 1 = best repellent) (southern pine beetle [2]; TRIAL 2): 3
mean rank (southern pine beetle [2]): 2.5
rank in reduction of trap captures (southern pine beetle [2]): second and third
release rate [3]: 462.6 mg/day

Compound: COc1ccc(C)cc1 [4-methylanisole]
% REPELLED (southern pine beetle [1]; [4]): 45%
BEHAVIORAL RATING (southern pine beetle [1]; 30-second exposure): 2

Compound: CCCc1ccccc1O [2-propylphenol]
BEHAVIORAL RATING (southern pine beetle [1]; 30-second exposure): 2

Compound: Cc1cccc(C)c1 [m-xylene]
% REPELLED (southern pine beetle [1]; [4]): 34%
BEHAVIORAL RATING (southern pine beetle [1]; 30-second exposure): 2

Compound: COc1ccccc1C [2-methylanisole]
% REPELLED (southern pine beetle [1]; [4]): 35%
BEHAVIORAL RATING (southern pine beetle [1]; 30-second exposure): 1

Compound: CCOc1ccccc1OC [2-ethoxyanisole]
% REPELLED (southern pine beetle [1]; [4]): 40%
BEHAVIORAL RATING (southern pine beetle [1]; 30-second exposure): 2

Compound: C=CCc1ccc(O)c(OC)c1 [eugenol]
% REPELLED (southern pine beetle [1]; [5]): <40%

Compound: C=CCc1ccc(OC)cc1 [4-allylanisole]
rank (relative repellency, 1 = best repellent) (southern pine beetle [2]; TRIAL 1): 1
rank (relative repellency, 1 = best repellent) (southern pine beetle [2]; TRIAL 2): 1
rank (relative repellency, 1 = best repellent) (southern pine beetle [2]; TRIAL 3): 1
rank (relative repellency, 1 = best repellent) (southern pine beetle [2]; TRIAL 4): 1
rank (relative repellency, 1 = best repellent) (southern pine beetle [2]; TRIAL 5): 1
rank (relative repellency, 1 = best repellent) (southern pine beetle [2]; TRIAL 6): 1
beetles captured relative to other treatments (southern pine beetle [2]; all trials): fewest
mean rank (southern pine beetle [2]): 1.0
release rate [3]: 15.6 mg/day

Compound: C=CCc1ccccc1 [allylbenzene]
% REPELLED (southern pine beetle [1]; [5]): >90%
rank (relative repellency, 1 = best repellent) (southern pine beetle [2]; TRIAL 1): 5
rank (relative repellency, 1 = best repellent) (southern pine beetle [2]; TRIAL 2): 5
rank (relative repellency, 1 = best repellent) (southern pine beetle [2]; TRIAL 5): 2
rank (relative repellency, 1 = best repellent) (southern pine beetle [2]; TRIAL 6): 4
mean rank (southern pine beetle [2]): 4.0
release rate [3]: 128.2 mg/day
